According to a compilation of properties of binary mixtures (doi:10.1016/j.molliq.2022.120410):

Assay: xn = mol fraction of the nth substance listed
Conditions: 101.3 kPa

OCCOCCO + CC[NH3+].O=[N+]([O-])[O-]
x2 = 0
Conditions | speed of sound [m/s]
298.1 K | 1580.6
308.1 K | 1556.6

CC[NH3+].O=[N+]([O-])[O-] + OCCOCCO
speed of sound [m/s]
Conditions | 298.1 K | 308.1 K | 318.1 K
x1 = 0.0488 | 1599.6 | 1576.8 | 1553.8
x1 = 0.0983 | 1614.6 | 1592 | 1569.5
x1 = 0.197 | 1632 | 1609.6 | 1587.5
x1 = 0.2961 | 1639.9 | 1619.1 | 1598.3
x1 = 0.3955 | 1644.5 | 1625.4 | 1605.9
x1 = 0.4954 | 1643.9 | 1625.6 | 1607.3
x1 = 0.5955 | 1643.2 | 1626.3 | 1609.1
x1 = 0.6961 | 1641.7 | 1625.6 | 1609.1
x1 = 0.797 | 1640 | – | 1607.8
x1 = 0.8983 | 1638.6 | 1622.8 | 1607.3
x1 = 1 | – | 1624.7 | 1609.3
